The values that follow come from US20170334899A1, “AMINO-SUBSTITUTED ISOTHIAZOLES” (Bayer Pharma Aktiengesellschaft, priority 2014, published 2017).

The structures appear in SMILES notation. Bounds are passed on as bounds.

One experiment concerns HeLa. As to the kind of experiment: Proliferation assay (crystal violet), HeLa. It counts as cell-based. As to conditions: Homo sapiens, HeLa, 96 h, HeLa cells; 4 days incubation; crystal violet staining; read-out: IC50 inhibition of proliferation, HeLa. A digest of the protocol:
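Cells plated at 1000-5000/well with 10% FCS, treated after 24 h with compound at 0.001-10 μM (0.5% DMSO) for 4 days. Glutaraldehyde-fixed, crystal violet-stained, A595 normalised to zero-point plate (0%) and untreated cells (100%); IC50 by 4-parameter fit.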

In experiment [1] the target is T1, catalytic domain of human Bub1 (amino acids 704-1085) (Homo sapiens, UniProt O43683).
T1 construct: catalytic domain of human Bub1 (amino acids 704-1085); His6 (N); made in house; host or cells: insect cells (Hi5)
As to the kind of experiment: Bub1 kinase assay (TR-FRET). The conditions noted are these: 10 μM ATP, avg, read-out: Bub1 avg (IC50 [mol/l]). It counts as biochemical. A digest of the protocol: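 Readout is the 665/620 nm TR-FRET ratio from anti-phosphoserine antibody, Eu-labelled anti-mouse IgG and streptavidin-XL665, scaled between no-enzyme and uninhibited controls. Reaction: 1 μM biotinylated peptide, 10 μM ATP, 60 min, 22 °C, after 15 min compound preincubation with His6-Bub1 (704-1085, insect-expressed, ~200 ng/ml).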
(In TR-FRET formats the signal depends on donor and acceptor labels being close together.)

T1 sequence (O43683 704-1085): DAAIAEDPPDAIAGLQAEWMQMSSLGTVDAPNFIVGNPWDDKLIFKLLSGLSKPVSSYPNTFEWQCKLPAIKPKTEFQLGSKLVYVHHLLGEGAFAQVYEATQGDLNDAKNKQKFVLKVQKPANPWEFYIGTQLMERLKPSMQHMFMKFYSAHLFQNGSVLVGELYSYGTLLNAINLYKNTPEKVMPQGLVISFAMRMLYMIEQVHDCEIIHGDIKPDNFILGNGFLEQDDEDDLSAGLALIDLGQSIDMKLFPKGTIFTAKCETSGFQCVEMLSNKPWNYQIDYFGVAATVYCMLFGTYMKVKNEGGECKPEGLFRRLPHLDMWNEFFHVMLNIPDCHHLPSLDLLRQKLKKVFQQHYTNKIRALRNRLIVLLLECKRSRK

For `Cc1nsc(Nc2cnc(C(F)(F)F)cn2)c1C(=O)Nc1ccc(OCCNC(=O)C(F)(F)F)nc1` [Example 425, 3-Methyl-N-(6-{2-[(trifluoroacetyl)amino]ethoxy}pyridin-3-yl)-5-{[5-(trifluoro-methyl)pyrazin-2-yl]amino}-1,2-thiazole-4-carboxamide], the IC50 in the experiment with HeLa was 1.3 µM; in experiment [1], no less than 20 µM.

For the compound `Cc1nsc(Nc2cnc(C(F)(F)F)cn2)c1C(=O)Nc1ccc(F)c(OC[C@H]2CCCN(CCC(F)(F)F)C2)c1` [Example 418, N-(4-Fluoro-3-{[(3S)-1-(3,3,3-trifluoropropyl)piperidin-3-yl]methoxy}phenyl)-3-methyl-5-{[5-(trifluoromethyl)pyrazin-2-yl]amino}-1,2-thiazole-4-carboxamide], the results for the IC50 (with HeLa; in experiment [1]) were 1.2 µM and greater than 20 µM, respectively.

In the case of `Cc1nsc(Nc2cnc(C(F)(F)F)cn2)c1C(=O)Nc1ccc(OC2CCNCC2)c(F)c1` [Example 431, N-[3-Fluoro-4-(piperidin-4-yloxy)phenyl]-3-methyl-5-{[5-(trifluoromethyl)pyrazin-2-yl]amino}-1,2-thiazole-4-carboxamide], the IC50 in the experiment on HeLa was greater than 10 µM; in experiment [1], greater than 20 µM.

Consider `Cc1nsc(Nc2cnc3ccccc3n2)c1C(=O)Nc1cccc(C(=O)N2CCOCC2)c1` [Example 52, 3-Methyl-N-[3-(morpholin-4-ylcarbonyl)phenyl]-5-(quinoxalin-2-ylamino)-1,2-thiazole-4-carboxamide], for which the IC50 with HeLa was determined as 10 µM; in experiment [1] it was 9 µM.

`Cc1nsc(Nc2ccc(C#N)cn2)c1C(=O)Nc1ccc(OC2CCCN(CC(F)F)C2)nc1` (stereo not drawn) [Example 39, 5-[(5-Cyanopyridin-2-yl)amino]-N-(6-{[1-(2,2-difluoroethyl)piperidin-3-yl]oxy}-pyridin-3-yl)-3-methyl-1,2-thiazole-4-carboxamide]: the IC50 in the experiment with HeLa is 1.1 µM; in experiment [1], no less than 20 µM.

On to `Cc1nsc(Nc2cnc3ccccc3n2)c1C(=O)Nc1cccc(C(=O)NC(C)(C)C)c1` [Example 53, N-[3-(tert-Butylcarbamoyl)-phenyl]-3-methyl-5-(quinoxalin-2-ylamino)-1,2-thiazole-4-carboxamide], for which the IC50 in the experiment on HeLa was determined as 2.7 µM; in experiment [1], 9 µM.

For the compound `Cc1nsc(Nc2cnc(C(F)(F)F)cn2)c1C(=O)Nc1ccc(F)c(OC[C@@H]2CCN(CC(F)F)C2)c1` [Example 403, N-(3-{[(3R)-1-(2,2-difluoroethyl)pyrrolidin-3-yl]methoxy}-4-fluorophenyl)-3-methyl-5-{[5-(trifluoromethyl)pyrazin-2-yl]amino}-1,2-thiazole-4-carboxamide], the IC50 in the experiment with HeLa is 0.45 µM; in experiment [1], greater than 20 µM.

For the compound `Cc1nsc(Nc2cc(C#N)ccn2)c1C(=O)Nc1ccc(OCCCNC(=O)OC(C)(C)C)nc1` [Example 43, tert-Butyl [3-({5-[({5-[(4-cyanopyridin-2-yl)amino]-3-methyl-1,2-thiazol-4-yl}-carbonyl)amino]pyridin-2-yl}oxy)propyl]carbamate], the IC50 in the experiment on HeLa was 10 µM; in experiment [1], no less than 20 µM.

In the case of `COC(=O)c1cccc(NC(=O)c2c(C)nsc2Nc2cnc3ccccc3n2)c1` [Example 50, Methyl 3-({[3-methyl-5-(quinoxalin-2-ylamino)-1,2-thiazol-4-yl]carbonyl}amino)-benzoate], the IC50 in the experiment with HeLa is 1.9 µM; in experiment [1] it was no less than 20 µM.

As to `CCN1CCC(Oc2ccc(NC(=O)c3c(C)nsc3Nc3cnc(C(F)(F)F)cn3)cn2)C(F)(F)C1` (stereo not drawn) [Example 406, N-{6-[(1-Ethyl-3,3-difluoropiperidin-4-yl)oxy]pyridin-3-yl}-3-methyl-5-{[5-(trifluoromethyl)pyrazin-2-yl]amino}-1,2-thiazole-4-carboxamide], the IC50 was 0.16 µM with HeLa and greater than 20 µM in experiment [1].

Take `Cc1nsc(Nc2ccc(C#N)cn2)c1C(=O)Nc1ccc(OC2CCCN(C(=O)OC(C)(C)C)C2)nc1` (stereo not drawn) [Example 36, tert-Butyl 3-({5-[({5-[(5-cyanopyridin-2-yl)amino]-3-methyl-1,2-thiazol-4-yl}-carbonyl)amino]pyridin-2-yl}oxy)piperidine-1-carboxylate]: the results for the IC50 (in the experiment on HeLa; in experiment [1]) were 1.1 µM and no less than 20 µM, respectively.

On to `Cc1nsc(Nc2cnc3ccccc3n2)c1C(=O)Nc1cccc(C(=O)O)c1` [Example 51, 3-({[3-Methyl-5-(quinoxalin-2-ylamino)-1,2-thiazol-4-yl]carbonyl}amino)benzoic acid], for which the IC50 came out at 10 µM in the experiment with HeLa and 1.9 µM in experiment [1].

`Cc1nsc(Nc2cc(C#N)ccn2)c1C(=O)Nc1ccc(OCCCNCC(F)F)nc1` [Example 45, 5-[(4-Cyanopyridin-2-yl)amino]-N-(6-{3-[(2,2-difluoroethyl)amino]propoxy}pyridin-3-yl)-3-methyl-1,2-thiazole-4-carboxamide]: the IC50 with HeLa is 10 µM; in experiment [1] it was no less than 20 µM.

Take `Cc1nsc(Nc2cnc(C(F)(F)F)cn2)c1C(=O)Nc1ccc(OCC2CCN(CC(F)F)CC2(F)F)nc1` (stereo not drawn) [Example 401, N-(6-{[1-(2,2-difluoroethyl)-3,3-difluoropiperidin-4-yl]methoxy}pyridin-3-yl)-3-methyl-5-{[5-(trifluoromethyl)pyrazin-2-yl]amino}-1,2-thiazole-4-carboxamide]: the values for the IC50 (in the experiment on HeLa; in experiment [1]) were 0.43 µM and greater than 20 µM, respectively.

As for `Cc1nsc(Nc2cnc(C(F)(F)F)cn2)c1C(=O)Nc1ccc(F)c(OC[C@H]2CCCN(CC(F)(F)F)C2)c1` [Example 419, N-(4-Fluoro-3-{[(3S)-1-(2,2,2-trifluoroethyl)piperidin-3-yl]methoxy}phenyl)-3-methyl-5-{[5-(trifluoromethyl)pyrazin-2-yl]amino}-1,2-thiazole-4-carboxamide], the IC50 was 0.76 µM in the experiment with HeLa and greater than 20 µM in experiment [1].

For `Cc1nsc(Nc2cc(C#N)ccn2)c1C(=O)Nc1ccc(OCCCN)nc1` [Example 44, N-[6-(3-Aminopropoxy)pyridin-3-yl]-5-[(4-cyanopyridin-2-yl)amino]-3-methyl-1,2-thiazole-4-carboxamide], the IC50 with HeLa is 10 µM; in experiment [1], no less than 20 µM.

On to `Cc1nsc(Nc2cnc(C(F)(F)F)cn2)c1C(=O)Nc1ccc(F)c(O[C@@H]2CCN(CC(F)(F)F)C2)c1` [Example 413, N-(4-Fluoro-3-{[(3R)-1-(2,2,2-trifluoroethyl)pyrrolidin-3-yl]oxy}phenyl)-3-methyl-5-{[5-(trifluoromethyl)pyrazin-2-yl]amino}-1,2-thiazole-4-carboxamide], for which the IC50 with HeLa was 0.27 µM; in experiment [1] it was greater than 20 µM.

As to `CCCN1C[C@H](F)[C@H](Oc2ccc(NC(=O)c3c(C)nsc3Nc3cnc(C(F)(F)F)cn3)cn2)C1` [Example 408, N-(6-{[(3R,4S)-4-Fluoro-1-propylpyrrolidin-3-yl]oxy}pyridin-3-yl)-3-methyl-5-{[5-(trifluoromethyl)pyrazin-2-yl]amino}-1,2-thiazole-4-carboxamide], the IC50 in the experiment with HeLa was 0.26 µM; in experiment [1], greater than 20 µM.

Take `Cc1nsc(Nc2cnccn2)c1C(=O)Nc1ccc(OC2CCCN(C(=O)OC(C)(C)C)C2)nc1` (stereo not drawn) [Example 41, tert-Butyl 3-{[5-({[3-methyl-5-(pyrazin-2-ylamino)-1,2-thiazol-4-yl]carbonyl}amino)-pyridin-2-yl]oxy}piperidine-1-carboxylate]: the figures for the IC50 (in the experiment with HeLa; in experiment [1]) were 10 µM and no less than 20 µM, respectively.

For the compound `CCN1CC[C@H](Oc2ccc(NC(=O)c3c(C)nsc3Nc3cnc(C(F)(F)F)cn3)cn2)[C@H](F)C1` [Example 424, N-(6-{[(3R,4S)-1-Ethyl-3-fluoropiperidin-4-yl]oxy}pyridin-3-yl)-3-methyl-5-{[5-(trifluoromethyl)pyrazin-2-yl]amino}-1,2-thiazole-4-carboxamide], the IC50 was 0.53 µM in the experiment with HeLa and greater than 20 µM in experiment [1].

`Cc1nsc(Nc2cnc3ccccc3n2)c1C(=O)Nc1cccc(C(=O)NCC(=O)OC(C)(C)C)c1` [Example 54, tert-Butyl N-[3-({[3-methyl-5-(quinoxalin-2-ylamino)-1,2-thiazol-4-yl]carbonyl}amino)-benzoyl]glycinate]: the IC50 in the experiment with HeLa was determined as 10 µM; in experiment [1], 16 µM.
